# Data from the Kinase Knowledgebase extract (Sharma et al. 2016).
# Biological target: CDK2 (human) (UniProt P24941)
# Test: Enzyme Assay
row,SMILES,IC50 [µg/mL]
1,CC(C)(C)c1cc2c(NN=Cc3nc(C4CCNCC4)cs3)ncnc2s1,1.7
2,CCC(C)c1cc2c(NN=Cc3nc(CNC)cs3)ncnc2s1 (stereo not given),0.44
3,CNCc1cnc(C=NNc2ncnc3sc(C(C)(C)C)cc23)s1,0.35
4,CC(C)(C)c1cc2c(NN=Cc3cscn3)ncnc2s1,2.2
5,CNCc1ccc(C=NNc2ncnc3sc(C(C)(C)C)cc23)cc1,0.68
6,CNCc1csc(C=NNc2ncnc3sc(C4CCCCC4)cc23)n1,0.81
7,CNCc1csc(C=NNc2ncnc3sc(C4CC4)cc23)n1,> 2
8,CC(C)(C)c1cc2c(NN=Cc3cncs3)ncnc2s1,0.059
9,CC(C)(C)c1cc2c(NN=Cc3nc4c(s3)CNC4)ncnc2s1,0.2
10,CNCc1csc(C=NNc2ncnc3sc(C(C)C)cc23)n1,1.5
11,CNCc1csc(C=NNc2ncnc3sc(C(C)(C)CF)cc23)n1,1.8
12,CNCc1csc(C=NNc2ncnc3sc(C(C)C(C)C)cc23)n1 (stereo not given),0.88
13,CCCC(C)c1cc2c(NN=Cc3nc(CNC)cs3)ncnc2s1 (stereo not given),1.4
14,CNCc1csc(C=NNc2ncnc3sc(C4CCC4)cc23)n1,1.4
15,CNCc1csc(C=NNc2ncnc3sc(C(C)(C)CO)cc23)n1,1.8

# Next, values leading:
row,IC50 [µg/mL],SMILES
1,1.4,CCC(N)c1csc(C=NNc2ncnc3sc(C(C)(C)C)cc23)n1 (stereo not given)
2,1.1,CNC(C)c1csc(C=NNc2ncnc3sc(C(C)(C)C)cc23)n1 (stereo not given)
3,1.8,CC(C)(C)c1cc2c(NN=Cc3nc(C4CCNC4)cs3)ncnc2s1 (stereo not given)
4,0.98,CNCc1csc(C=NNc2ncnc3sc(C(C)(C)C)cc23)n1
5,0.83,CC(N)c1csc(C=NNc2ncnc3sc(C(C)(C)C)cc23)n1 (stereo not given)
6,0.68,CC(N)c1csc(C=NNc2ncnc3sc(C(C)(C)CF)cc23)n1 (stereo not given)
7,0.2,CC(C)(C)c1cc2c(NN=Cc3nccs3)ncnc2s1
8,0.38,CC(C)(C)c1cc2c(NN=Cc3nc(CN)cs3)ncnc2s1
9,1.4,CN(C)Cc1csc(C=NNc2ncnc3sc(C(C)(C)C)cc23)n1
10,1,CC(C)(C)c1cc2c(NN=Cc3nc(C4CNC4)cs3)ncnc2s1
